Test results as given in US11535607B2, “Isoindolines as HDAC inhibitors” (Valo Health, Inc., priority 2018, dated 2022).
pIC50: −log10 of the molar value. Values after ≈ are worked out from the molar mass of the structure shown. Where two headings read alike, the source gives them in different places. One block for each compound: values may come before it.

Key:
full-length human HDAC11 [1] = molecular target: T1, full-length human HDAC11 (Homo sapiens (Human), UniProt Q96DB2); assay: Probe binding HDAC11 time resolved fluorescence (TRF) assay; settings: Table 2, read-out: HDAC11 IC50 Range
T1 sequence (Q96DB2 whole entry): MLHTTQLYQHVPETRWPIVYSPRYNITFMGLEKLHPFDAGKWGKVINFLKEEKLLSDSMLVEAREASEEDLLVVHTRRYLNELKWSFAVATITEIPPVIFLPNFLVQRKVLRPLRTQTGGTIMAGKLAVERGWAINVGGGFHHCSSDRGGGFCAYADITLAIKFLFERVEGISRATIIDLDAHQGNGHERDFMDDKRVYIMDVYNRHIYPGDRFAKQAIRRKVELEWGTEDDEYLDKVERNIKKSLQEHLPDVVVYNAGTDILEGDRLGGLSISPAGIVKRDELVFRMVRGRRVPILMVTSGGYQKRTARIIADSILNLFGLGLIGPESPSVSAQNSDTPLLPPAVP

full-length human HDAC11 [2] = molecular target: T1, full-length human HDAC11; assay: HDAC11 deacetylase electrophoretic mobility shift assay (Nanosyn); assay type: biochemical; settings: for pIC50: mobility shift assay
Experimental: The measurement of HD AC 11 deacetylase activity was performed using an electrophoretic mobility shift assay by Nanosyn (Santa Clara, Calif.). Full length human recombinant HD AC 11 protein was expressed in baculoviral system and purified by affinity chromatography. The enzymatic reactions were assembled in 384 well plates in a total volume of 25 μL in a reaction buffer composing: 100 mM HEPES, pH 7.5, 25 mM KCl, 0.1% bovine serum albumin, 0.01% Triton X-100, 1% DMSO (from compounds), 2 μM of the fluorescently labeled peptide substrate and enzyme. The enzyme was added at a final concentration of 10 nM. The peptide substrate FAM-RHKK(tri-fluor-Ac)—NH2 was used. The compounds were tested at 12 concentrations spaced by 3× dilution intervals. Negative control samples (0%-inhibition in the absence of inhibitor) and positive control samples (100%-inhibition) were assembled in replicates of four in each assay plate. The reactions were incubated at 25° C. and quenched by the addition of 45 μL of termination buffer (100 mM HEPES, pH 7.5, 0.01% Triton X-100, 0.05% SDS).
The terminated assay plates were analyzed on LabChip® 3000 microfluidic electrophoresis instrument (Perkin Elmer/Caliper Life Sciences). The fluorescence intensity of the electrophoretically separated de-acetylated product and substrate peptide was measured. Activity in each sample was determined as the product to sum ratio (PSR): P/(S+P), where P is the peak height of the product peptide and S is the peak height of the substrate peptide. Percent inhibition (Pinh) is determined using the following equation: Pinh=(PSR0%−PSRinh)/(PSR0%−PSR100%)*100, where PSRinh, is the product sum ratio in the presence of inhibitor, PSR0% is the average product sum ration in the absence of inhibitor and PSR100% is the average product sum ratio in 100%-inhibition control samples. The IC50 values of inhibitors were determined by fitting the percent inhibition curves with 4 parameter dose-response model using XLfit 4 software.

[3] = molecular target: HDAC11 fused to Nanoluc luciferase (Homo sapiens (Human), UniProt Q96DB2); assay: BRET target engagement cell assay
Chain of HDAC11 fused to Nanoluc luciferase (Q96DB2 whole entry, the tested form may be a part): as the sequence (Q96DB2 whole entry) above

[4] = Kinetic solubility at pH 7.4; assay type: physicochemical; settings: aqueous buffer, kinetic from dmso stock
[5] = In vitro intrinsic clearance after incubation with mouse liver microsomes; assay type: in vitro ADME; settings: Table 6
HDAC11 = HDAC11 (Homo sapiens (Human), UniProt Q96DB2); assay: Lipophilic efficiency (pIC50 HDAC11 - clogD7.4); settings: pIC50 HDAC11 - clogD7.4, Table 6
Chain of HDAC11 (Q96DB2 whole entry): as above

HDAC5 = HDAC5 (Homo sapiens (Human), UniProt Q9UQL6); assay: HDAC5 electrophoretic mobility shift assay; assay type: biochemical; settings: Table 7, read-out: HDAC IC50, HDAC 5
Chain of HDAC5 (Q9UQL6 whole entry): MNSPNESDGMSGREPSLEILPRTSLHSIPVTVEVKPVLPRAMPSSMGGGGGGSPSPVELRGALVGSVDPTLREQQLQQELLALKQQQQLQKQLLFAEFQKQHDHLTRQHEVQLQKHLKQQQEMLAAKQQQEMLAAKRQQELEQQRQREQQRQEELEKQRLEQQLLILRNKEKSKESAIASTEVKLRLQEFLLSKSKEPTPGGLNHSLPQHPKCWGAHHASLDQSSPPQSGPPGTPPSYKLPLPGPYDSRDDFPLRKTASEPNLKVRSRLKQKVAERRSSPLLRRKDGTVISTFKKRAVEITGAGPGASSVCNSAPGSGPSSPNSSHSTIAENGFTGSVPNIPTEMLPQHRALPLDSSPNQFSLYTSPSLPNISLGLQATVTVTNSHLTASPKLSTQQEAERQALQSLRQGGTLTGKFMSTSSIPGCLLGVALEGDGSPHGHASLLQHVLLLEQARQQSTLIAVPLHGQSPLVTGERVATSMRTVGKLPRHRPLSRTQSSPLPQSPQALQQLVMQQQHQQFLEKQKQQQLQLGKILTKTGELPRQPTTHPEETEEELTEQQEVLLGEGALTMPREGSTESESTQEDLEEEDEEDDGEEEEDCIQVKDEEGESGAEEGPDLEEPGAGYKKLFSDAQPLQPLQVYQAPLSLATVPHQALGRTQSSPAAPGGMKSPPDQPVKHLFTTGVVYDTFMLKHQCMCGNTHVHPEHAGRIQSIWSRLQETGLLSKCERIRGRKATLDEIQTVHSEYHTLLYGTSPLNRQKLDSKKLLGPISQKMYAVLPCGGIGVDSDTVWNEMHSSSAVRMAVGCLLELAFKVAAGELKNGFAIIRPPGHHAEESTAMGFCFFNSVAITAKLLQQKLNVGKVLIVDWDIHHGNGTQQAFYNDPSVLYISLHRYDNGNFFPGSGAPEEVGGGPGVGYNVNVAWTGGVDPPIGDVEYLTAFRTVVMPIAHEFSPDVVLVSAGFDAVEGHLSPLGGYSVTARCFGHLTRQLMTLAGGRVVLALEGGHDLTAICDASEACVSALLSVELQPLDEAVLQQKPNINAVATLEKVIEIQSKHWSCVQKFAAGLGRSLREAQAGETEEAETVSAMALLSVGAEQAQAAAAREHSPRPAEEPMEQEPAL

HDAC7 = HDAC7 (Homo sapiens (Human), UniProt Q8WUI4); assay: HDAC7 electrophoretic mobility shift assay; assay type: biochemical; settings: Table 7, read-out: HDAC IC50, HDAC 7
Chain of HDAC7 (Q8WUI4 whole entry): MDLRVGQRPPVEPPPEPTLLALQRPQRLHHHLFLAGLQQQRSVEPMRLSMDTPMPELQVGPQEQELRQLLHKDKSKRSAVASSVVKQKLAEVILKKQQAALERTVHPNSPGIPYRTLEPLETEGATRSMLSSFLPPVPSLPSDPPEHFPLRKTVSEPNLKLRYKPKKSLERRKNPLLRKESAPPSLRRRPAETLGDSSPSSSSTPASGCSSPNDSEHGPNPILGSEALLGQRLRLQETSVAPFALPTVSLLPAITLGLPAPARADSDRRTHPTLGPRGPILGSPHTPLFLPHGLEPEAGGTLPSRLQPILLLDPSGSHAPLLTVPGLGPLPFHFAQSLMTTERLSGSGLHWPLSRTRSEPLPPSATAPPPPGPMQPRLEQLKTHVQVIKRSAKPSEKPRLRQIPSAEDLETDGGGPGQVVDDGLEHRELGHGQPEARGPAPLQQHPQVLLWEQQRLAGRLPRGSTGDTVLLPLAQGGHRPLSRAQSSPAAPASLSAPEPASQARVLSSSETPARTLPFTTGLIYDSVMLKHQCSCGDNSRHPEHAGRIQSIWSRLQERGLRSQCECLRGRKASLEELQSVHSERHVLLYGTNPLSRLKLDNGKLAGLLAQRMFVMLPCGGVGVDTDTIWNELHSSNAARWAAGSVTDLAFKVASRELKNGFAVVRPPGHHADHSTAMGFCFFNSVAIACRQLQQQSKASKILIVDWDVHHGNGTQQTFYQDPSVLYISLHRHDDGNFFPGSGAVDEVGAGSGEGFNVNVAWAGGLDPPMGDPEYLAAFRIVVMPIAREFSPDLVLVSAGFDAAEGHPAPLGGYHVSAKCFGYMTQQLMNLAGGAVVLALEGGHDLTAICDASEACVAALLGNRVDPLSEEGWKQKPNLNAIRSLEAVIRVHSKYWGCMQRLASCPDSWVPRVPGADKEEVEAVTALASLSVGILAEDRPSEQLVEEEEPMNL

HDAC9 = HDAC9 (Homo sapiens (Human), UniProt Q9UKV0); assay: HDAC9 electrophoretic mobility shift assay; assay type: biochemical; settings: Table 7, read-out: HDAC IC50, HDAC 9
Chain of HDAC9 (Q9UKV0 whole entry): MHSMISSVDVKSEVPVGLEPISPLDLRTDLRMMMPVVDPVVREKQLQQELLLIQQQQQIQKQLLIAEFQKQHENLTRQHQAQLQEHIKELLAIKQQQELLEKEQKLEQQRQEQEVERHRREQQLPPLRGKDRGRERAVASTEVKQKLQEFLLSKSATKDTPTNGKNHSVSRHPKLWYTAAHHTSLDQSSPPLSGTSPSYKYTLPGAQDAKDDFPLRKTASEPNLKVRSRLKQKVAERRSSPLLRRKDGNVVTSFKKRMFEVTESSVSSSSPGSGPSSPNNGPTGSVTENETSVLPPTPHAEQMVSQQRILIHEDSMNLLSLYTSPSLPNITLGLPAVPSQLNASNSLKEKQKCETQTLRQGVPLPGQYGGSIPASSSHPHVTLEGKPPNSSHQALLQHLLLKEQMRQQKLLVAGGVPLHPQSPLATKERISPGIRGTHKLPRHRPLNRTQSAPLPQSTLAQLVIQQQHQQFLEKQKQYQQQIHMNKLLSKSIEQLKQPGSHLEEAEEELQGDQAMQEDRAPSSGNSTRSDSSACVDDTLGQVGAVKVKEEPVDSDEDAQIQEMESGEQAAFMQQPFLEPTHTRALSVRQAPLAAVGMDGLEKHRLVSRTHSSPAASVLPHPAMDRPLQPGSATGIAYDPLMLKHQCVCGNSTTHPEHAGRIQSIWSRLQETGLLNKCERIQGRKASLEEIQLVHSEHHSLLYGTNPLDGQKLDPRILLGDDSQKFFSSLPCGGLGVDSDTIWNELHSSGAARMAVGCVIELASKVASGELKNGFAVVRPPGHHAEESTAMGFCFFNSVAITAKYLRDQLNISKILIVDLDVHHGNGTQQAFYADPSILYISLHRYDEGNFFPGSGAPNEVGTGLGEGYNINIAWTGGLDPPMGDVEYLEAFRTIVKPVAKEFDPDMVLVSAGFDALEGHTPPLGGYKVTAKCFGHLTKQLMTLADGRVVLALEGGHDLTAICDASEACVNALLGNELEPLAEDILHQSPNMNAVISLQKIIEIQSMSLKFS

[6] = Mouse pharmacokinetic study (i.v. and i.p.); assay type: in vivo
Experimental: Based on its overall in vitro profile, 22-8 was advanced to mouse PK studies to measure its suitability as an in vivo tool compound. The pharmacokinetic properties of 22-8 were assessed in male Balb/c nude mice following both intravenous (i.v.) and intraperitoneal (i.p.) dosing (Table 8).

HDAC6 = HDAC6 (Homo sapiens (Human), UniProt Q9UBN7); assay: HDAC6 electrophoretic mobility shift assay; assay type: biochemical; settings: mobility shift assay, Table 7; read-out: HDAC IC50, HDAC 6
Chain of HDAC6 (Q9UBN7 whole entry, species assumed): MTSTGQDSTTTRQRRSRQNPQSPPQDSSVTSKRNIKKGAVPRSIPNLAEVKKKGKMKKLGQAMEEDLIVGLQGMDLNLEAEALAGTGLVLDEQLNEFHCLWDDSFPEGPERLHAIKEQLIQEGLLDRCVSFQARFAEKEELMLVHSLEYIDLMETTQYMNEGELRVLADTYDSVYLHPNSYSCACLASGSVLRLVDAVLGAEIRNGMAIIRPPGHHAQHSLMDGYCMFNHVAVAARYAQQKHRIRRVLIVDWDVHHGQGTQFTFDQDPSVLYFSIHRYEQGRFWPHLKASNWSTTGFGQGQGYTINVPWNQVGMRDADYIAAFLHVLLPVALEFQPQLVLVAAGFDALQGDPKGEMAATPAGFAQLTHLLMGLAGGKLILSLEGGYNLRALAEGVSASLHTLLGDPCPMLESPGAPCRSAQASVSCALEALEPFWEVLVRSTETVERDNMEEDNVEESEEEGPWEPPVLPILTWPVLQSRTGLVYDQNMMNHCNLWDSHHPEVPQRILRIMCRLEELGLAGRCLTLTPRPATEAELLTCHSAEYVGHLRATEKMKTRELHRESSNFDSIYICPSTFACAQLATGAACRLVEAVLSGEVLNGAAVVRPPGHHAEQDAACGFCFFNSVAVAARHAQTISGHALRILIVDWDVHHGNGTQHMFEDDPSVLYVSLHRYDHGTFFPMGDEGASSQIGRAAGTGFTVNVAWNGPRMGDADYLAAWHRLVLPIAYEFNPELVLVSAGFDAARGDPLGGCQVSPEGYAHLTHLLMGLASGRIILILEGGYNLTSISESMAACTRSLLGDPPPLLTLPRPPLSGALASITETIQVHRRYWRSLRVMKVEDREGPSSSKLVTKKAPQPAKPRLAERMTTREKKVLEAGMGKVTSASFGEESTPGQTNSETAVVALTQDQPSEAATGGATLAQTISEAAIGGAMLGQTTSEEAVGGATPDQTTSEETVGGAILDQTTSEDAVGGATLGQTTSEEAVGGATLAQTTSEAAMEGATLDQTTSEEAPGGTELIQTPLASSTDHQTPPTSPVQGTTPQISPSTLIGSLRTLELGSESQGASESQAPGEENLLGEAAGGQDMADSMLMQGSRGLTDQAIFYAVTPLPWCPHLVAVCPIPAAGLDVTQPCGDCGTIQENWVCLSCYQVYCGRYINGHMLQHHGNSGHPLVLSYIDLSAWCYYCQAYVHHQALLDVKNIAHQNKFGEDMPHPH

HDAC2 = HDAC2 (Homo sapiens (Human), UniProt Q92769); assay: HDAC2 electrophoretic mobility shift assay; assay type: biochemical; settings: Table 7, read-out: HDAC IC50, HDAC 2
HDAC4 = HDAC4 (Homo sapiens (Human), UniProt P56524); assay: HDAC4 electrophoretic mobility shift assay; assay type: biochemical; settings: Table 7, read-out: HDAC IC50, HDAC 4
HDAC3 = HDAC3 (Homo sapiens (Human), UniProt O15379); assay: HDAC3 electrophoretic mobility shift assay; assay type: biochemical; settings: Table 7, read-out: HDAC IC50, HDAC 3
HDAC10 = HDAC10 (Homo sapiens (Human), UniProt Q969S8); assay: HDAC10 electrophoretic mobility shift assay; assay type: biochemical; settings: Table 7, read-out: HDAC IC50, HDAC 10
[7] = test system: other 10 members of the HDAC family; assay: HDAC family selectivity profile, electrophoretic mobility shift assays; assay type: biochemical, human; settings: HDAC 1-11 profile
HDAC8 = HDAC8 (Homo sapiens (Human), UniProt Q9BY41); assay: HDAC8 electrophoretic mobility shift assay; assay type: biochemical; settings: Table 7, read-out: HDAC IC50, HDAC 8
HDAC1 = HDAC1 (Homo sapiens (Human), UniProt Q13547); assay: HDAC1 electrophoretic mobility shift assay; assay type: biochemical; settings: Table 7, read-out: HDAC IC50, HDAC 1
[8] = IP 5 mg/kg, male Balb/c nude mice
[9] = mouse, in vivo, IP 5 mg/kg, male Balb/c nude mice
[10] = mouse, in vivo, IV 1 mg/kg, male Balb/c nude mice

SMILES: CC1(C)c2cccc(C(=O)NO)c2CN1c1cnc(C(F)(F)F)nc1 [Compound 22-7, N-hydroxy-1,1-dimethyl-2-(2-(trifluoromethyl)pyrimidin-5-yl)isoindoline-4-carboxamide]
pIC50 (full-length human HDAC11 [1]): > 6.30
pIC50 (full-length human HDAC11 [2]; Table 6, read-out: HDAC11 IC50): > 6.30
pIC50 ([3]; read-out: HDAC11 BRET IC50, BRET cell assay, Table 6): > 6.30
solubility [4]: > 55 µM
microsomal CLint [5]: < 50 µL/min/mg
LipE (HDAC11): ++ (indicates 5.5<LipE≤6.5)

pIC50 (HDAC5): < 6.00
pIC50 (HDAC7): < 6.00
solubility [4]: 30 to 55 µM (≈ 10.6 to 19.4 µg/mL)
pIC50 (HDAC9): < 6.00
microsomal CLint [5]: < 50 µL/min/mg
Bioavailability [6, 8]: 81 % F
t1/2 [6, 8]: 10.2 h
t1/2 ([6]; IV 1 mg/kg, male Balb/c nude mice): 9.4 h
AUC(0-t) [6, 9]: 3.8 µM·h
Cmax [6, 9]: 4.2 µM
half-life [6, 9]: 612 min
AUC(0-t) [6, 10]: 1 µM·h
C0 [6, 10]: 3.5 µM
clearance [6, 10]: 42 mL/min/kg
half-life [6, 10]: 564 min
Vd ([6]; mouse, in vivo, IV 1 mg/kg, male Balb/c nude mice, read-out: Vss): 18 L/kg
time free drug levels maintained over the cellular IC50 ([6]; single 5 mg/kg i.p. dose, mice): up to 4 h
SMILES: CC1(C)c2cccc(C(=O)NO)c2CN1c1cnc(C(F)(F)F)cn1 [Compound 22-8, N-Hydroxy-1,1-dimethyl-2-(5-(trifluoromethyl)pyrazin-2-yl)isoindoline-4-carboxamide]

pIC50 (HDAC6): < 6.00
pIC50 (HDAC2): < 6.00
pIC50 (HDAC4): < 6.00
HDAC11 potency, in words (full-length human HDAC11 [2]; comparison with parent or lead compound): loss of all HDAC11 activity
pIC50 (full-length human HDAC11 [2]; Table 6, read-out: HDAC11 IC50): < 6.00
pIC50 (full-length human HDAC11 [2]; Table 7, read-out: HDAC IC50, HDAC 11): < 6.00
pIC50 (HDAC3): < 6.00
pIC50 (HDAC10): < 6.00
pIC50 (HDAC5): < 6.00
pIC50 (HDAC7): < 6.00
pIC50 [3]: < 6.00
solubility [4]: ≤ 30 µM
pIC50 (HDAC9): < 6.00
microsomal CLint [5]: < 50 µL/min/mg
pIC50 (HDAC8): < 6.00
LipE (HDAC11): + (indicates LipE≤5.5)
pIC50 (HDAC1): < 6.00
SMILES: CC1(C)c2cccc(C(N)=O)c2CN1c1cnc(C(F)(F)F)cn1 [Compound 50-1, 1,1-Dimethyl-2-(5-(trifluoromethyl)pyrazin-2-yl)isoindoline-4-carboxamide]
activity against all HDACs, in words [7]: inactive against all HDACs
